Among the data in US20250059182A1, “SOS1 INHIBITORS” (Mirati Therapeutics, Inc., priority 2021, published 2025) are IC50 values, retold here.

This assay has as its system pERK in MKN1 cells. The experiment in a line: pERK inhibition, In-Cell Western (LI-COR Odyssey), MKN1 cells. The class given is cell-based. Conditions: Homo sapiens, MKN-1, Table B; MKN1 or H358 cells (table does not say which); 0.5-1 hour incubation; read-out: IC50 (nM), pERK inhibition. As to the method:
This Example illustrates that exemplary compounds of the present invention prevent KRas-mediated GTP nucleotide exchange mediated by SOS1 to inhibit KRas activity thereby inhibiting the generation of the downstream effector pERK.
MKN1 cells (15,000/w) or H358 (30,000/w) were seeded in a black clear flat bottom 96-well cell culture plate (Corning, #3904) and incubated at 37° C. overnight. Assay day 1, cells were dosed with compounds of Formula (I) with a 10 μm starting concentration and serially diluted 3× for a total of 9 concentrations. The cells were incubated for approximately 0.5-1 hour with the compounds solubilized in DMSO at 37° C. Cells were immediately fixed by adding 50 μL of 4% formaldehyde to all wells in a fume hood and the plates were incubated for 20 minutes at room temperature. The formaldehyde was discarded from the plates and 150 μL of ice-cold methanol was added to permeabilize the cells for 10 minutes at −20° C. The methanol was discarded from each of the plates and any liquid remaining in the plate by tapping the plate against paper towels. Cells were then blocked with 150 μL of Odyssey blocking buffer (LI-COR Biosciences #927-50010) using 0.05% Tween for 1 hour at room temperature on a shaker. The blocking buffer was discarded and 50 μL of primary antibodies pERK (cell signaling Technology #9101L; Rabbit, 1:500) and GapDH (Millipore #MAB34; Mouse, 1:5000) diluted in Odyssey blocking buffer was added. The plates were incubated overnight at 4° C. on a shaker.
On Assay day 2, the primary antibody solution was removed. Each plate was washed 3× times with 150 μL of 1×PBST (PBS+0.1% Tween 20) and incubated with 50 μL of secondary antibodies: Anti-Rabbit (LI-COR Biosciences #926-32211) and Anti-Mouse (LI-COR Biosciences #68070) at 1:800 dilution in Odyssey blocking buffer with Tween at room temperature on a shaker for 2 hours (protected from light). The secondary antibody solution as removed and each plate was washed with PBST 3× times. Any liquid remaining was discarded and the plate was imaged using the Licor Odyssey machine according to the manufacturer's instruction, using a set focus length at 3 mm and both 800 nm and 700 nm filters. The GAPDH normalized scan values for each well were divided by the average of vehicle wells to get the % of pERK inhibition. The IC50 values were then calculated with the Graph pad Prism software.

What is called IC50 is the midpoint of a concentration-inhibition curve. Consider `Cc1c(C#N)cccc1[C@@H](C)Nc1nnc(C)c2cc(Cl)c(N3CCOCC3)cc12` [7-2, (R)-3-(1-((6-chloro-4-methyl-7-morpholinophthalazin-1-yl)amino)ethyl)-2-methylbenzonitrile], for which the IC50 was 286 nM.

For the molecule `Cc1nnc(N[C@H](C)c2cccc(C(F)(F)F)c2F)c2cc(N(C)[C@H]3CCN(C)C3)ncc12` [Example 1-28, N^1-((R)-1-(2-fluoro-3-(trifluoromethyl)phenyl)ethyl)-N^7,4-dimethyl-N^7-((S)-1-methylpyrrolidin-3-yl)pyrido[3,4-d]pyridazine-1,7-diamine], the IC50 came out at 52.3 nM. For `Cc1nnc(N[C@H](C)c2cccc(C(F)(F)F)c2F)c2cc(N(C)[C@@H]3CCN(C)C3)ncc12` [Example 1-29, N^1-((R)-1-(2-fluoro-3-(trifluoromethyl)phenyl)ethyl)-N^7,4-dimethyl-N^7-((R)-1-methylpyrrolidin-3-yl)pyrido[3,4-d]pyridazine-1,7-diamine], the IC50 came to 41 nM. For `Cc1c(C#N)cccc1[C@@H](C)Nc1nnc(C)c2cnc(N[C@H]3CCN(C)C3)cc12` [Example 1-30, 2-methyl-3-((R)-1-((4-methyl-7-(((S)-1-methylpyrrolidin-3-yl)amino)pyrido[3,4-d]pyridazin-1-yl)amino)ethyl)benzonitrile] the value was 250 nM; for `Cc1c(C#N)cccc1[C@@H](C)Nc1nnc(C)c2cnc(N[C@@H]3CCN(C)C3)cc12` [Example 1-31, 2-methyl-3-((R)-1-((4-methyl-7-(((R)-1-methylpyrrolidin-3-yl)amino)pyrido[3,4-d]pyridazin-1-yl)amino)ethyl)benzonitrile], 128 nM; for `Cc1c(C#N)cccc1[C@@H](C)Nc1nnc(C)c2cnc(N3CCN(C)C(=O)C3)cc12` [Example 1-45, (R)-2-methyl-3-(1-((4-methyl-7-(4-methyl-3-oxopiperazin-1-yl)pyrido[3,4-d]pyridazin-1-yl)amino)ethyl)benzonitrile], 99 nM. As to `Cc1c(C#N)cccc1[C@@H](C)Nc1nnc(C)c2cnc(N3C[C@@H](C)N(C)[C@@H](C)C3)cc12` [Example 1-67, 2-methyl-3-((R)-1-((4-methyl-7-((3R,5S)-3,4,5-trimethylpiperazin-1-yl)pyrido[3,4-d]pyridazin-1-yl)amino)ethyl)benzonitrile], the IC50 amounted to 121 nM. As to `Cc1c(C#N)cccc1[C@@H](C)Nc1nnc(C)c2cnc(N3C[C@H](C)N(C)[C@@H](C)C3)cc12` [Example 1-68, 2-methyl-3-((R)-1-((4-methyl-7-((3S,5S)-3,4,5-trimethylpiperazin-1-yl)pyrido[3,4-d]pyridazin-1-yl)amino)ethyl)benzonitrile], the IC50 stood at 61 nM.

Regarding `Cc1c(C#N)cccc1[C@@H](C)Nc1nnc(C)c2cnc(N3C[C@@H]4C[C@H]3CN4)cc12` [Example 1-75, 3-((R)-1-((7-((1S,4S)-2,5-diazabicyclo[2.2.1]heptan-2-yl)-4-methylpyrido[3,4-d]pyridazin-1-yl)amino)ethyl)-2-methylbenzonitrile], the IC50 turned out to be 590 nM.

Regarding `Cc1c(C#N)cccc1[C@@H](C)Nc1nnc(C)c2cnc(N(C)[C@@H]3CCN(C(C)C)C3)cc12` [Example 1-78, 3-((R)-1-((7-(((R)-1-isopropylpyrrolidin-3-yl)(methyl)amino)-4-methylpyrido[3,4-d]pyridazin-1-yl)amino)ethyl)-2-methylbenzonitrile], the IC50 was 53.9 nM.

Turning to `Cc1c(C#N)cccc1[C@@H](C)Nc1nnc(C)c2cnc(N(C)[C@H]3CCN(C(C)C)C3)cc12` [Example 1-79, 3-((R)-1-((7-(((S)-1-isopropylpyrrolidin-3-yl)(methyl)amino)-4-methylpyrido[3,4-d]pyridazin-1-yl)amino)ethyl)-2-methylbenzonitrile], the IC50 was 75.2 nM. With `Cc1c(C#N)cccc1[C@@H](C)Nc1nnc(C)c2cnc(N3CC4(COC4)C3)cc12` [Example 1-80, (R)-2-methyl-3-(1-((4-methyl-7-(2-oxa-6-azaspiro[3.3]heptan-6-yl)pyrido[3,4-d]pyridazin-1-yl)amino)ethyl)benzonitrile], the concentration for half-maximal inhibition (IC50) amounted to 60.9 nM.
